Literature values in article PMC2791716 (Biotechnology and bioengineering, 2009).
Where two headings read alike, the source gives them in different places.

Tests used:
[1] = system: cell adhesion to laminin-1; conditions: ref Nakahara et al. 1996
[2] = no reference given

| Compound | inhibition of cell adhesion to laminin-1 [1] | minimum effective therapeutic concentration ([2]; systemic delivery) | minimum effective therapeutic concentration ([2]; systemic vascular concentration, converted from 50mg/kg) |
| --- | --- | --- | --- |
| TWYKIAFQRNRK | 90% |  |  |
| COc1cccc2c1C(=O)c1c(O)c3c(c(O)c1C2=O)C[C@@](O)(C(=O)CO)C[C@@H]3O[C@H]1C[C@H](N)[C@H](O)[C@H](C)O1 [doxorubicin] |  | 50 mg/kg | approximately 90 μM |
